Source: PubChem BioAssay AID2060331 (Molecular Pharmacology Branch, DTP, NCI, 2025)

Test system: Hs578T multi-cell spheroids, viability
Test: Anticancer human tumor Hs578T cell line growth inhibition [IpAb];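 note: drug exposure lasted 7 days before readout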
Settings: for IC50: curve of first compound; for viability, T/C: stronger effect = lower value
Description: Combinatorial screen of targeted agents with ipatasertib and abemaciclib in multi-cell type tumor spheroids
A high-throughput screen of multi-cell type tumor spheroids was designed to identify active combinations of targeted small molecules and ipatasertib or abemaciclib. Complex spheroids include a stromal component modeled by human endothelial cells (HUVEC) and fibroblasts modeled by human mesenchymal stem cells (MSCs). The concentration ranges selected for each drug and investigational agent were based upon clinically achievable concentrations if the clinical Cmax of the agent was known.
Compounds. The drugs and investigational agents: ipatasertib (NSC767898), abemaciclib(NSC768073), selumetinib (NSC741078), trametinib (758246), adavosertib (NSC754352), everolimus (NSC733504), sapanisertib (NSC764658), vemurafenib (NSC761431), venetoclax (NSC766270), copanlisib (NSC809693), apelisib (NSC765974), palbociblib (NSC758247), vemurafenib (NSC761431), dabrafenib (NSC764134), ravoxertinib (NSC781343), BMS-387032 (NSC767048), sotorasib (NSC818433), talazoparib (NSC767125) and afursertib (NSC778305), were obtained from the National Cancer Institute (NCI) Developmental Therapeutics Program Chemical Repository. The FDA-approved anticancer drug set is available from the NCI Developmental Therapeutics Program. […] The stock solutions were prepared in dimethyl sulfoxide (DMSO, Sigma-Aldrich, St. Louis, MO, cat. D2650) at 800-fold the tested concentration and stored at -70 degrees C prior to their use. All drugs and investigational agents were tested over a range starting from a high concentration at or near the clinical Cmax and decreasing in half-log increments. If the clinical Cmax for an agent had not been determined, the highest concentration tested was 10 microM.
NCI60 Cell Culture. NCI60 cell lines were obtained from the NCI Developmental Therapeutics Program Tumor Repository. For each lot of cells, the Repository performed Applied Biosystems AmpFLSTR Identifiler testing with PCR amplification to confirm consistency with the published Identifier STR profile for each cell line. Cells were kept in continuous culture for no more than 20 passages. The optimal seeding densities for each of the cell lines at each time point assessed were determined prior to performing the concentration response studies. Briefly, the NCI60 human tumor lines were grown as monolayers in RPMI 1640 medium supplemented with 10% FBS and 2 mmol/L L-glutamine.
An additional 9 lines were from the NCI60 cell line panel including MDA-MB-231 breast carcinoma, MDA-MB-468 breast carcinoma, MCF7 breast carcinoma, Hs578T breast carcinoma, MALME-3M melanoma, SK-MEL-2 melanoma, SK-OV-3 ovarian carcinoma, DU-145 prostate carcinoma, PC-3 prostate carcinoma, all cell lines along with major genetic alterations are listed on Table 2. Pooled donor human umbilical vein endothelial cells (HUVEC, Lonza, cat. CC-2519) and human mesenchymal stem cells (hMSC, Lonza, cat. PT-2501) were purchased from Lonza (Walkersville, MD).
PDMR cell lines were grown in complete medium (DC medium): Dulbecco's modified Eagle's medium (DMEM)/F12 supplemented with 5% fetal bovine serum (FBS), 2 mM L-glutamine, 100 U/mL penicillin and 100 µg/ml streptomycin, 0.4 µg/ml hydrocortisone, 10 ng/ml epidermal growth factor (EGF) recombinant human protein, 24 µg/mL adenine, and 0.1 mg/mL primocin. During culture from frozen stock vials, PDMR cells were cultured in the same medium containing 10 µM Y-27632 (see Table 3). The PDCs were cultured in complete DMEM/F12 media without 10 microM Y-27632 dihydrochloride for at least two passages prior to the screen. The pooled donor HUVEC and hMSC were cultured in endothelial cell growth medium 2 (PromoCell, Heidelberg, Germany, cat. C-22011) and mesenchymal stem cell growth medium 2 (PromoCell, cat. C-28009), respectively. For all experiments, HUVEC and hMSC were used at passages </=5.
[…]

[1] = second compound 0.1 µM, first compound 0.0316 µM
[2] = second compound 0.1 µM, first compound 0.1 µM
[3] = second compound 0.1 µM, first compound 0.316 µM
[4] = second compound 0.1 µM, first compound 1 µM
[5] = second compound 0.316 µM, first compound 0.0316 µM
[6] = second compound 0.316 µM, first compound 0.1 µM
[7] = second compound 0.316 µM, first compound 0.316 µM
[8] = second compound 0.316 µM, first compound 1 µM
[9] = second compound 1 µM, first compound 0.0316 µM
[10] = second compound 1 µM, first compound 0.1 µM
[11] = second compound 1 µM, first compound 0.316 µM
[12] = second compound 1 µM, first compound 1 µM
[13] = second compound 3.16 µM, first compound 0.0316 µM
[14] = second compound 3.16 µM, first compound 0.1 µM
[15] = second compound 3.16 µM, first compound 0.316 µM
[16] = second compound 3.16 µM, first compound 1 µM
[17] = second compound 10 µM, first compound 0.0316 µM
[18] = second compound 10 µM, first compound 0.1 µM
[19] = second compound 10 µM, first compound 0.316 µM
[20] = second compound 10 µM, first compound 1 µM

Question: Which IC50 (second compound 0.1 µM) does the source give for `CC(=O)c1c(C)c2cnc(Nc3ccc(N4CCNCC4)cn3)nc2n(C2CCCC2)c1=O` + CC(C)NCC(C(=O)N1CCN(c2ncnc3c2C(C)CC3O)CC1)c1ccc(Cl)cc1 here?
Answer: Its IC50 is over 300 nM.

Question: And the IC50 (second compound 0.316 µM)?
Answer: The IC50 was over 300 nM.

Question: What about the IC50 (second compound 1 µM) of the same compound?
Answer: Its IC50 is 20 nM.

Question: What about the IC50 (second compound 3.16 µM) of the same compound?
Answer: The IC50 was 11.1 nM.

Question: What about the IC50 (second compound 10 µM) of the same compound?
Answer: Its IC50 is under 0.949 nM.

Question: And the viability, T/C (second compound 0.1 µM, first compound 0.000949 µM)?
Answer: Its viability, T/C is 96.7%.

Question: What about the viability, T/C (second compound 0.1 µM, first compound 0.003 µM) of the same compound?
Answer: Its viability, T/C is 86.1%.

Question: And the viability, T/C (second compound 0.1 µM, first compound 0.00949 µM)?
Answer: The viability, T/C was 83.3%.

Question: What about the viability, T/C (second compound 0.1 µM, first compound 0.03 µM) of the same compound?
Answer: The viability, T/C was 71.4%.

Question: What about the viability, T/C (second compound 0.1 µM, first compound 0.0949 µM) of the same compound?
Answer: The viability, T/C was 64.2%.

Question: What about the viability, T/C (second compound 0.1 µM, first compound 0.3 µM) of the same compound?
Answer: Its viability, T/C is 60.1%.

Question: What about the viability, T/C (second compound 0.316 µM, first compound 0.000949 µM) of the same compound?
Answer: The viability, T/C was 92.7%.

Question: And the viability, T/C (second compound 0.316 µM, first compound 0.003 µM)?
Answer: The viability, T/C was 79.7%.

Question: What about the viability, T/C (second compound 0.316 µM, first compound 0.00949 µM) of the same compound?
Answer: The viability, T/C was 70.3%.

Question: And the viability, T/C (second compound 0.316 µM, first compound 0.03 µM)?
Answer: Its viability, T/C is 62.3%.

Question: And the viability, T/C (second compound 0.316 µM, first compound 0.0949 µM)?
Answer: Its viability, T/C is 59.4%.

Question: What about the viability, T/C (second compound 0.316 µM, first compound 0.3 µM) of the same compound?
Answer: The viability, T/C was 49.5%.

Question: What about the viability, T/C (second compound 1 µM, first compound 0.000949 µM) of the same compound?
Answer: Its viability, T/C is 62.7%.

Question: And the viability, T/C (second compound 1 µM, first compound 0.003 µM)?
Answer: The viability, T/C was 67.7%.

Question: What about the viability, T/C (second compound 1 µM, first compound 0.00949 µM) of the same compound?
Answer: Its viability, T/C is 56.1%.

Question: And the viability, T/C (second compound 1 µM, first compound 0.03 µM)?
Answer: Its viability, T/C is 48.6%.

Question: And the viability, T/C (second compound 1 µM, first compound 0.0949 µM)?
Answer: Its viability, T/C is 43%.

Question: What about the viability, T/C (second compound 1 µM, first compound 0.3 µM) of the same compound?
Answer: The viability, T/C was 47.2%.

Question: And the viability, T/C (second compound 3.16 µM, first compound 0.000949 µM)?
Answer: The viability, T/C was 55.6%.

Question: And the viability, T/C (second compound 3.16 µM, first compound 0.003 µM)?
Answer: The viability, T/C was 58.8%.

Question: And the viability, T/C (second compound 3.16 µM, first compound 0.00949 µM)?
Answer: Its viability, T/C is 52.8%.

Question: And the viability, T/C (second compound 3.16 µM, first compound 0.03 µM)?
Answer: The viability, T/C was 41.2%.

Question: What about the viability, T/C (second compound 3.16 µM, first compound 0.0949 µM) of the same compound?
Answer: The viability, T/C was 42.3%.

Question: What about the viability, T/C (second compound 3.16 µM, first compound 0.3 µM) of the same compound?
Answer: The viability, T/C was 38.8%.

Question: What about the viability, T/C (second compound 10 µM, first compound 0.000949 µM) of the same compound?
Answer: The viability, T/C was 48.7%.

Question: And the viability, T/C (second compound 10 µM, first compound 0.003 µM)?
Answer: Its viability, T/C is 47.5%.

Question: And the viability, T/C (second compound 10 µM, first compound 0.00949 µM)?
Answer: The viability, T/C was 41.7%.

Question: And the viability, T/C (second compound 10 µM, first compound 0.03 µM)?
Answer: The viability, T/C was 35.5%.

Question: And the viability, T/C (second compound 10 µM, first compound 0.0949 µM)?
Answer: The viability, T/C was 35.6%.

Question: What about the viability, T/C (second compound 10 µM, first compound 0.3 µM) of the same compound?
Answer: Its viability, T/C is 37.3%.

Question: What does the source list for `COc1c(OCCCN2CCOCC2)ccc2c3n(c(=NC(=O)c4cnc(N)nc4)nc12)CCN3` + CC(C)NCC(C(=O)N1CCN(c2ncnc3c2C(C)CC3O)CC1)c1ccc(Cl)cc1?
Answer: IC50 (second compound 0.1 µM): 33.2 nM; IC50 (second compound 0.316 µM): 18.8 nM; IC50 (second compound 1 µM): 8.74 nM; IC50 (second compound 3.16 µM): 3.84 nM; IC50 (second compound 10 µM): < 3.16 nM; viability, T/C (second compound 0.1 µM, first compound 0.00316 µM): 90.4%; viability, T/C (second compound 0.1 µM, first compound 0.01 µM): 76.8%; viability, T/C [1]: 47.4%; viability, T/C [2]: 31%; viability, T/C [3]: 15%; viability, T/C [4]: 5.13%; viability, T/C (second compound 0.316 µM, first compound 0.00316 µM): 81.7%; viability, T/C (second compound 0.316 µM, first compound 0.01 µM): 56.4%; viability, T/C [5]: 43.5%; viability, T/C [6]: 27%; viability, T/C [7]: 14.7%; viability, T/C [8]: 5.04%; viability, T/C (second compound 1 µM, first compound 0.00316 µM): 57.7%; viability, T/C (second compound 1 µM, first compound 0.01 µM): 50%; viability, T/C [9]: 36.6%; viability, T/C [10]: 24.9%; viability, T/C [11]: 14.8%; viability, T/C [12]: 5.35%; viability, T/C (second compound 3.16 µM, first compound 0.00316 µM): 51.3%; viability, T/C (second compound 3.16 µM, first compound 0.01 µM): 44.5%; viability, T/C [13]: 39.3%; viability, T/C [14]: 25.2%; viability, T/C [15]: 15.1%; viability, T/C [16]: 5%; viability, T/C (second compound 10 µM, first compound 0.00316 µM): 45.5%; viability, T/C (second compound 10 µM, first compound 0.01 µM): 43.9%; viability, T/C [17]: 33.6%; viability, T/C [18]: 20.3%; viability, T/C [19]: 13.2%; viability, T/C [20]: 3.28%

Question: What does the source list for `Cc1nc(NC(=O)N2CCCC2C(N)=O)sc1-c1ccnc(C(C)(C)C(F)(F)F)c1` (stereo not given) + CC(C)NCC(C(=O)N1CCN(c2ncnc3c2C(C)CC3O)CC1)c1ccc(Cl)cc1?
Answer: IC50 (second compound 0.1 µM): 1600 nM; IC50 (second compound 0.316 µM): 977 nM; IC50 (second compound 1 µM): 491 nM; IC50 (second compound 3.16 µM): 101 nM; IC50 (second compound 10 µM): < 31.6 nM; viability, T/C [1]: 96.8%; viability, T/C [2]: 87.8%; viability, T/C [3]: 70.8%; viability, T/C [4]: 57.4%; viability, T/C (second compound 0.1 µM, first compound 3.16 µM): 42.6%; viability, T/C (second compound 0.1 µM, first compound 10 µM): 11.7%; viability, T/C [5]: 80.1%; viability, T/C [6]: 71.3%; viability, T/C [7]: 57.1%; viability, T/C [8]: 48.7%; viability, T/C (second compound 0.316 µM, first compound 3.16 µM): 41%; viability, T/C (second compound 0.316 µM, first compound 10 µM): 13.9%; viability, T/C [9]: 61.8%; viability, T/C [10]: 61.4%; viability, T/C [11]: 53.9%; viability, T/C [12]: 42.3%; viability, T/C (second compound 1 µM, first compound 3.16 µM): 30.6%; viability, T/C (second compound 1 µM, first compound 10 µM): 8.93%; viability, T/C [13]: 53.6%; viability, T/C [14]: 51%; viability, T/C [15]: 44.1%; viability, T/C [16]: 35%; viability, T/C (second compound 3.16 µM, first compound 3.16 µM): 32.5%; viability, T/C (second compound 3.16 µM, first compound 10 µM): 9.58%; viability, T/C [17]: 45.3%; viability, T/C [18]: 42.1%; viability, T/C [19]: 39.2%; viability, T/C [20]: 28.8%; viability, T/C (second compound 10 µM, first compound 3.16 µM): 21.8%; viability, T/C (second compound 10 µM, first compound 10 µM): 1.81%
